pIC50: −log10 of the molar value. Where “and” joins values, the source holds several entries; their conditions need not be identical. Equal values may be shown once.

This experiment concerns A375 multi-cell spheroids with HUVEC/MSC, viability. The experiment can be described thus: Anticancer human tumor A375 cell line growth inhibition [GQUAD].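 For all read-outs here: spheroids exposed to compounds for seven days before readout.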 Conditions: for viability, T/C: stronger effect = lower value; for pIC50: curve of compound. The source says: DNA G-quadruplex Stabilizer Agents in Combinations in Complex Spheroids
A high-throughput screen of multi-cell type tumor spheroids was designed to identify active combinations of DNA G-quadruplex stabilizer agents and targeted small molecules. Complex spheroids include a stromal component modeled by human endothelial cells (HUVEC) and fibroblasts modeled by human mesenchymal stem cells (MSCs). The concentration ranges selected for each drug and investigational agent were based upon clinically achievable concentrations if the clinical Cmax of the agent was known.
Compounds. The drugs and investigational agents: pidnarulex (CX-5461; NSC782164), APTO-253 (NSC789042), BRACO-19 (NSC847499), peposertib (NSC802822), ceralasertib (NSC780249), elimusertib (NSC800525), camonsertib (NSC841442), AZD-1390 (NSC803789), olaparib (NSC753686), talazoparib (NSC767125), ART-558 (NSC835418), sotorasib (NSC818433), MRTX-1133 (NSC836407), SN-38 (NSC673596), topotecan (NSC609699), etoposide (NSC141540), doxorubicin (NSC123127), gemcitabine (NSC613327), 5-fluorouracil (NSC19893), paclitaxel (NSC125973), vemurafenib (NSC761431), panobinostat (NSC761190), R-306465 (JNJ-16241199; NSC773264), adavosertib (NSC754352), TP-3654 (NSC805149), carboplatin (NSC241240), KSQ-4279 (NSC840948), and staurosporine (NSC755774) were obtained from the National Cancer Institute (NCI) Developmental Therapeutics Program Chemical Repository (34). The FDA-approved anticancer drug set is available from the NCI Developmental Therapeutics Program. […] The stock solutions were prepared in dimethyl sulfoxide (DMSO, Sigma-Aldrich, St. Louis, MO, cat. D2650) at 800-fold the tested concentration and stored at -70 degrees C prior to their use. All drugs and investigational agents were tested over a range starting from a high concentration at or near the clinical Cmax and decreasing in half-log increments. If the clinical Cmax for an agent had not been determined, the highest concentration tested was 10 microM.
2.3 Cell Culture. All cells were maintained in an incubator at 37 degrees C and 5% CO2 with 95% humidity. The PDC lines were cultured according to standard operating procedures established by the NCI PDMR. All PDCs were thawed and cultured in Matrigel-coated flasks prepared with a working solution of 1X Ham's F-12 nutrient mix, without supplementation (Invitrogen, cat. 11765054), 100 U/mL penicillin-streptomycin (Invitrogen, cat. 15140122), and 2.5% Matrigel (Corning Inc., cat. 354248) for the first three passages. The 857933-349-R-J2-PDC line was cultured in 6C/Colon 1B media, which includes advanced DMEM/F-12 (Thermo Fisher Scientific, cat. 12634028), 10 mM HEPES (Thermo Fisher Scientific, cat. 15630080), 1X GlutaMAX supplement (Thermo Fisher Scientific, cat. 35050061), 0.1 mg/mL primocin (InvivoGen, cat. ant-pm-2), 10% defined fetal bovine serum, heat inactivated (HyClone Laboratories Inc., cat. SH30070.03HI), 50% L-WRN conditioned media (ATCC, cat. CRL-3276), 1.25 mM N-Acetyl-L-cysteine (Sigma-Aldrich, cat. A9165), 10 mM nicotinamide (Sigma-Aldrich, cat. N0636), 1X B-27 supplement (Thermo Fisher Scientific, cat. 17504044), 1X N-2 supplement (Thermo Fisher Scientific, cat. 17502048), 10 microM Y-27632 dihydrochloride (Tocris Bioscience, cat. 1254), and 50 ng/mL human EGF recombinant protein (Thermo Fisher Scientific, cat. PHG0311). The 485176-168-R4-J1-PDC line was cultured in Panc media, which includes all 6C/Colon 1B media components plus 100 ng/mL human FGF-10 (Thermo Fisher Scientific, cat. 100-26), 500 nM SB-431542 (Selleckchem, cat. S1067), and gastrin (Tocris, cat. 3006).
[…]

Regarding `C#Cc1c(F)ccc2cc(O)cc(-c3ncc4c(N5CC6CCC(C5)N6)nc(OCC56CCCN5CC(F)C6)nc4c3F)c12` (configuration not stated), the pIC50 is less than 5.00. In addition, for the setting “compound 0.0316 µM”, the viability, T/C is 103% and 97.8% and 101%. Further, the viability, T/C (compound 0.1 µM) was 96% and 106% and 96.2%. Further, where the note is “compound 0.316 µM”, the viability, T/C was 97.2% and 96.2% and 108%. Further, the viability, T/C (compound 1 µM) was 101% and 117% (2×). Also, the viability, T/C (compound 3.16 µM) is 113% and 106% and 101%. In addition, the viability, T/C (compound 10 µM) is 90.4% and 98.4% and 113%.

As for `C=CCn1c(=O)c2cnc(Nc3ccc(N4CCN(C)CC4)cc3)nc2n1-c1cccc(C(C)(C)O)n1`, the pIC50 is 6.03 and 5.90 and 5.83. The viability, T/C (compound 0.0316 µM) is 101% and 98.4% and 96.4%. In addition, for the setting “compound 0.1 µM”, the viability, T/C is 104% and 102% and 96.9%. For the same compound, the viability, T/C (compound 0.316 µM) was 89.5% and 96.9% and 102%. For the same compound, the viability, T/C (compound 1 µM) is 48.4% and 59% and 66.4%. The viability, T/C (compound 3.16 µM) was 11.5% and 13.3% and 17.2%. The viability, T/C (compound 10 µM) was 5.76% and 7.73% and 8.28%.

As to `CC(C)(O)C1CCC(Nc2ccc3ncc(-c4cccc(C(F)(F)F)c4)n3n2)CC1` (configuration not stated), the pIC50 is less than 5.00. The viability, T/C (compound 0.0316 µM) was 104% and 93.2% and 105%. Moreover, the viability, T/C (compound 0.1 µM) was 105% and 99.9% and 95.9%. Further, the viability, T/C (compound 0.316 µM) is 99.1% and 95.6% and 91.5%. Besides, the viability, T/C (compound 1 µM) was 97.7% and 95.2% and 105%. Moreover, the viability, T/C (compound 3.16 µM) is 90.2% and 83.5% and 92%. Further, the viability, T/C (compound 10 µM) was 87.5% and 88% and 97.8%.

In the case of `CCCS(=O)(=O)Nc1ccc(F)c(C(=O)c2c[nH]c3ncc(-c4ccc(Cl)cc4)cc23)c1F`, the pIC50 was more than 7.50. The viability, T/C (compound 0.0316 µM) was 41.8% and 44% and 40.9%. Under “compound 0.1 µM”, the viability, T/C was 16.1% and 14.9% and 17.2%. The viability, T/C (compound 0.316 µM) was 8.83% and 9.93% and 11.1%. Besides, the viability, T/C (compound 1 µM) was 6.9% and 7.11% and 7.65%. Further, for the setting “compound 3.16 µM”, the viability, T/C was 5.54% and 6.38% and 6.53%. In addition, the viability, T/C (compound 10 µM) was 5.63% and 5.69% and 7.54%.

Consider `COc1ncnc(C2CC2)c1-c1ncc2cnn(Cc3ccc(-c4nc(C(F)(F)F)cn4C(C)C)cc3)c2n1`, for which the pIC50 was less than 5.00. In addition, the viability, T/C (compound 0.0316 µM) is 94% and 97.5% and 102%. Besides, the viability, T/C (compound 0.1 µM) was 93.6% and 99.8% and 99.5%. Also, the viability, T/C (compound 0.316 µM) was 93.8% and 100% and 99.5%. The viability, T/C (compound 1 µM) is 104% and 98.2% and 103%. Further, the viability, T/C (compound 3.16 µM) is 109% and 103% and 105%. Besides, where the note is “compound 10 µM”, the viability, T/C was 106% and 108% and 99.5%.

Turning to `O=C(NO)c1cnc(N2CCN(S(=O)(=O)c3ccc4ccccc4c3)CC2)nc1`, the pIC50 is 6.72 and 6.71 and 6.69. Also, under “compound 0.0316 µM”, the viability, T/C is 107% and 124% and 114%. Besides, under “compound 0.1 µM”, the viability, T/C is 109% and 110% and 112%. Besides, the viability, T/C (compound 0.316 µM) is 5.8% and 7.04% and 12.4%. Also, the viability, T/C (compound 1 µM) was 0.3% and 0.23%. Moreover, for the setting “compound 3.16 µM”, the viability, T/C is 0.3% and 0.39% and 0.16%. For the same compound, the viability, T/C (compound 10 µM) is 0.32% and 0.35% and 0.19%.
